Laboratory results published in publication PMC9369442, “Synthetic Peucedanocoumarin IV Prevents α-Synuclein Neurotoxicity in an Animal Model of Parkinson’s Disease” (International Journal of Molecular Sciences, 2022).

Key:
recombinant α-synuclein = molecular target: T1, recombinant α-synuclein (Homo sapiens, UniProt P37840); test: In vitro recombinant α-synuclein aggregation, Western blot; type: biochemical; details: 100 μM, 37 °C, 3 or 5 days
T1 construct: made in house; host or cells: Escherichia coli BL21
Procedure: Figure 2 PCiv prevents α-synuclein aggregation in vitro and in cultured neurons with PFF treatment. (A) Representative Western blots showing the degree of recombinant α-synuclein (αSyn) aggregation in a test tube in the presence or absence of PCiv (100 μM) at the indicated incubation duration (phosphate-buffered saline [PBS], 37 °C for 3 or 5 days). Aggregation of α-synuclein was determined using α-synuclein antibody. (B) Quantification of the relative amount of α-synuclein aggregate in high molecular weight sizes in panel A (n = 3 per group). […] (D) Quantification of pS129-αSyn immunofluorescence signal intensities in MAP2-positive cortical neurons in each experimental group (n = 15 cells from three separate experiments). (E) Cell viability assessment in the indicated experimental groups was monitored by CCK-8 assay (n = 3 per group). The data are expressed as means ± SEMs. * p < 0.05, ** p < 0.01, *** p < 0.001, and **** p < 0.0001, ANOVA test followed by Tukey’s post hoc analysis. […]
(A) Representative Western blots showing the degree of recombinant α-synuclein (αSyn) aggregation in a test tube in the presence or absence of t-Khellatone, PCiii, and PCiv (100 μM) at 0 and 5 days of incubation (phosphate-buffered saline [PBS], 37 °C for 5 days). Aggregation of α-synuclein was determined using α- synuclein antibody. […]

[1] = test system: SH-SY5Y cells with Tet-Off conditional expression of β23; test: Trypan blue exclusion cell viability assay, Tet-Off β23 expression; type: cell-based; details: 1 μM, 24 h
Procedure: Figure 1 Peucedanocoumarin IV (PCiv) inhibits β23 aggregations and cytotoxicity in SH-SY5Y cells. (A) Scheme showing the detailed experimental steps in the organic synthesis of racemic PCiv and racemic PCiii (rac-PCiii, and rac-PCiv). Both PCiii and PCiv used in this study are racemic forms. (B) Trypan blue exclusion cell viability assessment in SH-SY5Y cells with Tet-Off-induced β23 expressions. β23 was expressed for 24 h using the Tet-off system. Further expression of β23 was halted by doxycycline (Dox) treatment with simultaneous treatment of the PCiii, PCiv, or their synthetic intermediate, trans-khellatone (t-khellatone, 1 μM 24 h). Cell viability was assessed 24 h after doxycycline treatment (n = 5 per group). (C) Synthetic PCiv’s protective effect on Tet-Off-expressed β23 toxicity in SH-SY5Y cells compared with peucedanocoumarin III (PCiii) determined by trypan blue exclusion assay. (D) The degradation of β23 monitored by Western blot at 37 h after doxycycline (200 ng/mL) treatment. The representative Western blot image of HA (β23) in SH-SY5Y cells treated with synthetic PCiii, synthetic PCiv (1 μM, 37 h), or DMSO as a vehicle. (E) Quantification of HA (β23) expression in SH-SY5Y cells from the indicated experimental groups in panel D (n = 3 experiments per group). (F) Representative immunofluorescence of steady state HA (β23) expression in SH-SY5Y cells expressing Tet-Off regulatable reporter mCherry and HA-tagged β23. HA-β23 was expressed for 24 h using the Tet-off system. Further expression of β23 was halted by Dox treatment in the presence of PCiii or PCiv (1 μM, 37 h). (G) Quantification of HA (β23) immunofluorescence signal in mCherry positive SH-SY5Y cells in each experimental group (n = 32 cells from three separate experiments per group). The data are expressed as means ± SEMs. * p < 0.05, ** p < 0.01, *** p < 0.001, and **** p < 0.0001, ANOVA test followed by Tukey’s post hoc analysis. Two-way ANOVA was used in panel C.
Human neuroblastoma SH-SY5Y cells (ATCC, Manassas, VA, USA) were grown in complete media containing DMEMs, 10% fetal bovine serum (vol/vol), and antibiotics (penicillin-streptomycin 100 U/mL, Thermo Fisher Scientific, Waltham, MA, USA). The atmospheric condition used to preserve the cells consisted of 5% CO2/95% air at 37 °C and maintained a humidified environment. X-tremeGENE HP transfection reagents (Roche, Basel, Switzerland) were used for transient transfection of DNA constructs (pCMV-tTA, TetP-β23, and pTet-dual2 [5]) following the manufacturer’s instructions.
SH-SY5Y cells were plated in 12-well plates at a density of 0.2 × 10^6 cells per well. Following transient transfection with the indicated constructs and subsequent treatment protocol, the cells were harvested by trypsinization, thereby yielding single-cell suspensions. The cells were washed twice with phosphate-buffered saline (PBS) and resuspended in serum-free DMEM. The resuspended cells were mixed with an equal volume of 0.4% trypan blue (w/v) and incubated for 2 min at room temperature. Live and dead cells were counted using a Countess II Automated Cell Counter (Life Technologies, Carlsbad, CA, USA) for assessing cell viability.

SMILES: CC1(C)Oc2ccc3ccc(=O)oc3c2C(O)C1O (stereo not drawn) [trans-khellatone, reference compound]
- aggregation of recombinant α-synuclein into high molecular weight species (recombinant α-synuclein): failed to prevent
- effect on β23-induced cytotoxicity [1]: no effect
